Experimental data taken from patent US10167262B2, “Herbicidal substituted 3-arylpyrazoles” (FMC CORPORATION, priority 2014, dated 2019).

How the values were obtained:
Assay in all cases: Test E pre-/postemergence greenhouse test, plant response rating 0-100
Type in all cases: in vivo
[1] = test system: palmer pigweed (Amaranthus palmeri); settings: scale 0 to 100; for Pigweed, Palmer plant response rating: Preemergence
In short: (§1)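 Greenhouse response on a 0 (none) to 100 (complete control) scale, assessed 14 to 21 days post-treatment. Soil-applied preemergence on silt loam; foliar postemergence on plants 2–18 cm high.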

[2] = test system: barnyardgrass (Echinochloa crus-galli); settings: scale 0 to 100; for Barnyardgrass plant response rating: Preemergence
In short: as §1

[3] = test system: wild poinsettia (Euphorbia heterophylla); settings: scale 0 to 100; for Poinsettia, Wild plant response rating: Preemergence
In short: as §1

[4] = test system: corn (Zea mays); settings: scale 0 to 100; for Corn plant response rating: Preemergence
In short: as §1

[5] = test system: waterhemp (common waterhemp, Amaranthus rudis); settings: scale 0 to 100; for Waterhemp plant response rating: Preemergence
In short: as §1

[6] = test system: soybean (Glycine max); settings: scale 0 to 100; for Soybean plant response rating: Preemergence
In short: as §1

[7] = test system: hairy beggarticks (Bidens pilosa); settings: scale 0 to 100; for Beggarticks plant response rating: Preemergence
In short: as §1

[8] = test system: sandbur (southern sandbur, Cenchrus echinatus); settings: scale 0 to 100; for Sandbur plant response rating: Preemergence
In short: as §1

[9] = test system: arrowleaf sida (Sida rhombifolia); settings: for Arrowleaf Sida plant response rating: Preemergence
In short: as §1

[10] = test system: Brazilian crabgrass (Digitaria horizontalis); settings: Postemergence, scale 0 to 100
In short: as §1

[11] = test system: fall panicum (Panicum dichotomiflorum); settings: scale 0 to 100; for Panicum, Fall plant response rating: Preemergence
In short: as §1

O=C(c1ccccc1)c1cn(S(=O)(=O)CC(F)(F)F)nc1-c1cc(Cl)cc(Cl)c1 [Compound 3]
Plant response rating, Pigweed, Palmer ([1]; Postemergence, 31 g ai/ha): 40 | Plant response rating, Pigweed, Palmer ([1]; Postemergence, 62 g ai/ha): 50 | Plant response rating, Pigweed, Palmer ([1]; Postemergence, 125 g ai/ha): 75 | Plant response rating, Pigweed, Palmer ([1]; Postemergence, 250 g ai/ha): 90 | Plant response rating, Pigweed, Palmer ([1]; Postemergence, 500 g ai/ha): 75 | Pigweed, Palmer plant response rating ([1]; 31 g ai/ha): 0 | Pigweed, Palmer plant response rating ([1]; 62 g ai/ha): 20 | Pigweed, Palmer plant response rating ([1]; 125 g ai/ha): 65 | Pigweed, Palmer plant response rating ([1]; 250 g ai/ha): 50 | Pigweed, Palmer plant response rating ([1]; 500 g ai/ha): 100 | Plant response rating, Barnyardgrass ([2]; Postemergence, 31 g ai/ha): 0 | Plant response rating, Barnyardgrass ([2]; Postemergence, 62 g ai/ha): 0 | Plant response rating, Barnyardgrass ([2]; Postemergence, 125 g ai/ha): 0 | Plant response rating, Barnyardgrass ([2]; Postemergence, 250 g ai/ha): 0 | Plant response rating, Barnyardgrass ([2]; Postemergence, 500 g ai/ha): 0 | Barnyardgrass plant response rating ([2]; 31 g ai/ha): 0 | Barnyardgrass plant response rating ([2]; 62 g ai/ha): 0 | Barnyardgrass plant response rating ([2]; 125 g ai/ha): 0 | Barnyardgrass plant response rating ([2]; 250 g ai/ha): 0 | Barnyardgrass plant response rating ([2]; 500 g ai/ha): 0 | Plant response rating, Poinsettia, Wild ([3]; Postemergence, 31 g ai/ha): 0 | Plant response rating, Poinsettia, Wild ([3]; Postemergence, 62 g ai/ha): 0 | Plant response rating, Poinsettia, Wild ([3]; Postemergence, 125 g ai/ha): 0 | Plant response rating, Poinsettia, Wild ([3]; Postemergence, 250 g ai/ha): 15 | Plant response rating, Poinsettia, Wild ([3]; Postemergence, 500 g ai/ha): 10 | Poinsettia, Wild plant response rating ([3]; 125 g ai/ha): 0 | Poinsettia, Wild plant response rating ([3]; 250 g ai/ha): 0 | Poinsettia, Wild plant response rating ([3]; 500 g ai/ha): 0 | Plant response rating, Corn ([4]; Postemergence, 31 g ai/ha): 0 | Plant response rating, Corn ([4]; Postemergence, 62 g ai/ha): 0 | Plant response rating, Corn ([4]; Postemergence, 125 g ai/ha): 0 | Plant response rating, Corn ([4]; Postemergence, 250 g ai/ha): 0 | Plant response rating, Corn ([4]; Postemergence, 500 g ai/ha): 0 | Corn plant response rating ([4]; 31 g ai/ha): 0 | Corn plant response rating ([4]; 62 g ai/ha): 0 | Corn plant response rating ([4]; 125 g ai/ha): 0 | Corn plant response rating ([4]; 250 g ai/ha): 0 | Corn plant response rating ([4]; 500 g ai/ha): 0 | Plant response rating, Waterhemp ([5]; Postemergence, 31 g ai/ha): 95 | Plant response rating, Waterhemp ([5]; Postemergence, 62 g ai/ha): 98 | Plant response rating, Waterhemp ([5]; Postemergence, 125 g ai/ha): 98 | Plant response rating, Waterhemp ([5]; Postemergence, 250 g ai/ha): 90 | Plant response rating, Waterhemp ([5]; Postemergence, 500 g ai/ha): 98 | Waterhemp plant response rating ([5]; 31 g ai/ha): 0 | Waterhemp plant response rating ([5]; 62 g ai/ha): 50 | Waterhemp plant response rating ([5]; 125 g ai/ha): 75 | Waterhemp plant response rating ([5]; 250 g ai/ha): 85 | Waterhemp plant response rating ([5]; 500 g ai/ha): 98 | Plant response rating, Soybean ([6]; Postemergence, 31 g ai/ha): 0 | Plant response rating, Soybean ([6]; Postemergence, 62 g ai/ha): 0 | Plant response rating, Soybean ([6]; Postemergence, 125 g ai/ha): 0 | Plant response rating, Soybean ([6]; Postemergence, 250 g ai/ha): 0 | Plant response rating, Soybean ([6]; Postemergence, 500 g ai/ha): 0 | Soybean plant response rating ([6]; 31 g ai/ha): 0 | Soybean plant response rating ([6]; 62 g ai/ha): 0 | Soybean plant response rating ([6]; 125 g ai/ha): 0 | Soybean plant response rating ([6]; 500 g ai/ha): 0 | Plant response rating, Beggarticks ([7]; Postemergence, 31 g ai/ha): 60 | Plant response rating, Beggarticks ([7]; Postemergence, 62 g ai/ha): 95 | Plant response rating, Beggarticks ([7]; Postemergence, 125 g ai/ha): 98 | Plant response rating, Beggarticks ([7]; Postemergence, 250 g ai/ha): 98 | Plant response rating, Beggarticks ([7]; Postemergence, 500 g ai/ha): 98 | Beggarticks plant response rating ([7]; 31 g ai/ha): 0 | Beggarticks plant response rating ([7]; 62 g ai/ha): 0 | Beggarticks plant response rating ([7]; 125 g ai/ha): 25 | Beggarticks plant response rating ([7]; 250 g ai/ha): 25 | Beggarticks plant response rating ([7]; 500 g ai/ha): 30 | Plant response rating, Sandbur ([8]; Postemergence, 31 g ai/ha): 0 | Plant response rating, Sandbur ([8]; Postemergence, 62 g ai/ha): 0 | Plant response rating, Sandbur ([8]; Postemergence, 125 g ai/ha): 0 | Plant response rating, Sandbur ([8]; Postemergence, 250 g ai/ha): 0 | Plant response rating, Sandbur ([8]; Postemergence, 500 g ai/ha): 0 | Sandbur plant response rating ([8]; 31 g ai/ha): 0 | Sandbur plant response rating ([8]; 62 g ai/ha): 0 | Sandbur plant response rating ([8]; 125 g ai/ha): 15 | Sandbur plant response rating ([8]; 250 g ai/ha): 15 | Sandbur plant response rating ([8]; 500 g ai/ha): 90 | Plant response rating, Arrowleaf Sida ([9]; Postemergence, 31 g ai/ha, scale 0 to 100): 85 | Plant response rating, Arrowleaf Sida ([9]; Postemergence, 62 g ai/ha, scale 0 to 100): 95 | Plant response rating, Arrowleaf Sida ([9]; Postemergence, 125 g ai/ha, scale 0 to 100): 90 | Plant response rating, Arrowleaf Sida ([9]; Postemergence, 250 g ai/ha, scale 0 to 100): 95 | Plant response rating, Arrowleaf Sida ([9]; Postemergence, 500 g ai/ha, scale 0 to 100 (0 no effect, 100 complete control)): 98 | Arrowleaf Sida plant response rating ([9]; 31 g ai/ha, scale 0 to 100): 0 | Arrowleaf Sida plant response rating ([9]; 62 g ai/ha, scale 0 to 100): 40 | Arrowleaf Sida plant response rating ([9]; 125 g ai/ha, scale 0 to 100): 70 | Arrowleaf Sida plant response rating ([9]; 250 g ai/ha, scale 0 to 100): 90 | Arrowleaf Sida plant response rating ([9]; 500 g ai/ha, scale 0 to 100): 98 | Plant response rating, Crabgrass, Brazil ([10]; 31 g ai/ha): 0 | Plant response rating, Crabgrass, Brazil ([10]; 62 g ai/ha): 0 | Plant response rating, Crabgrass, Brazil ([10]; 125 g ai/ha): 0 | Plant response rating, Crabgrass, Brazil ([10]; 250 g ai/ha): 0 | Plant response rating, Crabgrass, Brazil ([10]; 500 g ai/ha): 0 | Plant response rating, Panicum, Fall ([11]; Postemergence, 31 g ai/ha): 0 | Plant response rating, Panicum, Fall ([11]; Postemergence, 62 g ai/ha): 0 | Plant response rating, Panicum, Fall ([11]; Postemergence, 125 g ai/ha): 0 | Plant response rating, Panicum, Fall ([11]; Postemergence, 250 g ai/ha): 0 | Plant response rating, Panicum, Fall ([11]; Postemergence, 500 g ai/ha): 0 | Panicum, Fall plant response rating ([11]; 31 g ai/ha): 0 | Panicum, Fall plant response rating ([11]; 62 g ai/ha): 0 | Panicum, Fall plant response rating ([11]; 125 g ai/ha): 0 | Panicum, Fall plant response rating ([11]; 250 g ai/ha): 0 | Panicum, Fall plant response rating ([11]; 500 g ai/ha): 0

COC(OC)(c1ccccc1)c1c[nH]nc1-c1cc(Cl)cc(Cl)c1 [Compound 13, 3-(3,5-dichlorophenyl)-4-(dimethoxyphenylmethyl)-1H-pyrazole]
pest or weed control at 125 g/ha ([1]; Amaranthus palmeri, post-emergence, Postemergence, 125 g ai/ha): 85% | pest or weed control at 500 g/ha ([1]; Amaranthus palmeri, post-emergence, Postemergence, 500 g ai/ha): 95% | pest or weed control at 125 g/ha ([2]; Echinochloa crus-galli, post-emergence, Postemergence, 125 g ai/ha): 15% | pest or weed control at 500 g/ha ([2]; Echinochloa crus-galli, post-emergence, Postemergence, 500 g ai/ha): 40% | pest or weed control at 125 g/ha ([3]; Euphorbia heterophylla, post-emergence, Postemergence, 125 g ai/ha, read-out: Plant response rating, Poinsettia, Wild): 0% | pest or weed control at 500 g/ha ([3]; Euphorbia heterophylla, post-emergence, Postemergence, 500 g ai/ha, read-out: Plant response rating, Poinsettia, Wild): 0% | Corn plant response rating (crop injury, 0 = no effect, 100 = complete kill) at 125 g/ha ([4]; Zea mays, post-emergence, Postemergence, 125 g ai/ha): 0% | Corn plant response rating (crop injury, 0 = no effect, 100 = complete kill) at 500 g/ha ([4]; Zea mays, post-emergence, Postemergence, 500 g ai/ha): 0% | pest or weed control at 125 g/ha ([5]; Amaranthus tuberculatus, post-emergence, Postemergence, 125 g ai/ha): 90% | pest or weed control at 500 g/ha ([5]; Amaranthus tuberculatus, post-emergence, Postemergence, 500 g ai/ha): 95% | plant injury at 125 g/ha ([6]; Glycine max, post-emergence, Postemergence, 125 g ai/ha): 0% | plant injury at 500 g/ha ([6]; Glycine max, post-emergence, Postemergence, 500 g ai/ha): 0% | pest or weed control at 125 g/ha ([7]; Bidens pilosa, post-emergence, Postemergence, 125 g ai/ha): 60% | pest or weed control at 500 g/ha ([7]; Bidens pilosa, post-emergence, Postemergence, 500 g ai/ha): 90% | pest or weed control at 125 g/ha ([8]; Cenchrus echinatus, post-emergence, Postemergence, 125 g ai/ha): 0% | pest or weed control at 500 g/ha ([8]; Cenchrus echinatus, post-emergence, Postemergence, 500 g ai/ha): 0% | pest or weed control at 125 g/ha ([9]; Sida rhombifolia, post-emergence, Postemergence, 125 g ai/ha, scale 0 to 100): 80% | pest or weed control at 500 g/ha ([9]; Sida rhombifolia, post-emergence, Postemergence, 500 g ai/ha, scale 0 to 100 (0 no effect, 100 complete control)): 90% | pest or weed control at 125 g/ha ([10]; Digitaria horizontalis, post-emergence, 125 g ai/ha, read-out: Plant response rating, Crabgrass, Brazil): 0% | pest or weed control at 500 g/ha ([10]; Digitaria horizontalis, post-emergence, 500 g ai/ha, read-out: Plant response rating, Crabgrass, Brazil): 0% | pest or weed control at 125 g/ha ([11]; Panicum dichotomiflorum, post-emergence, Postemergence, 125 g ai/ha): 0% | pest or weed control at 500 g/ha ([11]; Panicum dichotomiflorum, post-emergence, Postemergence, 500 g ai/ha): 0%
